Laboratory results: publication PMC12682947, “Identification of New KCNT1‐Epilepsy Drugs by In Silico, Cell, and Drosophila Modeling” (Annals of Neurology, 2025)
Where a name gives a salt, the structure may show the parent alone.

Molecular target: T1, R398Q mutant KCNT1 channels (Homo sapiens, UniProt Q5JUK3, R379Q)
T1 construct: YFP-6His; expressed in transfected cells; host or cells: HEK293T
T1 sequence (Q5JUK3 1-1235 isoform Q5JUK3-3 R398Q): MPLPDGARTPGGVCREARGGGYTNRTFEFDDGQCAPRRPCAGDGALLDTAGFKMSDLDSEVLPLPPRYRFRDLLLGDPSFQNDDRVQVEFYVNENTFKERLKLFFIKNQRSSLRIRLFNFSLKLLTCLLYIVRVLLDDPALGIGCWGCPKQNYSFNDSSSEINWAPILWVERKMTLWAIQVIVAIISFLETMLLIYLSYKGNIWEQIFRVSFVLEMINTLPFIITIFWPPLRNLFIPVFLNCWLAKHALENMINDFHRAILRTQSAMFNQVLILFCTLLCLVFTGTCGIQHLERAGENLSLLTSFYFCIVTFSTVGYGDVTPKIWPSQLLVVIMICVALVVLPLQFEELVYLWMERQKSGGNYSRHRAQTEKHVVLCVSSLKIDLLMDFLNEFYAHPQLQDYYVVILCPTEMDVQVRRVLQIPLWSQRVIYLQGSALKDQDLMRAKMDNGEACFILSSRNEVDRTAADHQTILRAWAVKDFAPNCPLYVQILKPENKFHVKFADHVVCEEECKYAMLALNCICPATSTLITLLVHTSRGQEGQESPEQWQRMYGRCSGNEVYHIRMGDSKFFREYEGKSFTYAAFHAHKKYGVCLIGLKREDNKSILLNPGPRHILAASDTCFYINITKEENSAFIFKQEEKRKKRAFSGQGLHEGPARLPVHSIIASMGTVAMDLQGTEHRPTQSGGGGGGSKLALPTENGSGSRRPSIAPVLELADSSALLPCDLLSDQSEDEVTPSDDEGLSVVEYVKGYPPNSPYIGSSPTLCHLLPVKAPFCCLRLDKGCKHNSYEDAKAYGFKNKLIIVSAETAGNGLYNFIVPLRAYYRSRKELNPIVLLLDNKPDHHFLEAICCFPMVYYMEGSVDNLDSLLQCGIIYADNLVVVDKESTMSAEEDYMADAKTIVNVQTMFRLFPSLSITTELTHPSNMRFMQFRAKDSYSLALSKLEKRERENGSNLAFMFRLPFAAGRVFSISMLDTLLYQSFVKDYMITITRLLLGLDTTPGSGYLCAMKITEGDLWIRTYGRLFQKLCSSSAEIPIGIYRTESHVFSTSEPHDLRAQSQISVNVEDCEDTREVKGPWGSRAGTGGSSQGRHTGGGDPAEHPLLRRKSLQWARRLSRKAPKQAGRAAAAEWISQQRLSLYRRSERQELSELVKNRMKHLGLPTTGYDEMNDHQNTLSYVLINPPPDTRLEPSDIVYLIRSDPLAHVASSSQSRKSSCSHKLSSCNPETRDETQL
Assay: Inside-out patch clamp of HEK293T cells expressing R398Q KCNT1
Type: cell-based
Conditions: inside-out patches, mean ± SEM
Description: The CHO cells were cultured in Dulbecco's modified Eagle's Medium (ThermoFisher, UK) supplemented with 10% (v/v) fetal bovine serum, 50 U/ml penicillin and 0.05 mg/ml streptomycin, and incubated at 37°C in 5% CO2 atmosphere. For whole cell recording of WT/Y796H KCNT1, CHO cells were transiently co‐transfected with concatemeric WT/Y796H and EYFP, as described previously.[29] For electrophysiological experiments, cells were plated onto borosilicate glass cover slips and used 2 to 4 days later. Human embryonic kidney 293T cells (HEK293T) were cultured in the same manner, but with medium supplemented with 2 mM L‐glutamine, and 1% (v/v) nonessential amino acids. For excised inside‐out recording of homomeric WT or mutant YFP‐tagged KCNT1, HEK293T cells plated on glass cover slips were transfected using Attractene Transfection Reagent (Qiagen, Germany) according to the manufacturer's instructions and used 2 to 3 days later.
Inside‐out patch clamp recordings were made at room temperature (23°C) from transiently transfected HEK293T cells, as described previously.[11] The pipette solution contained, in mM, 140 NaCl, 4 KCl, 2 CaCl2, 2 MgCl2, and 10 HEPES adjusted to pH 7.4 with NaOH. […] KCNT1 currents were recorded using 2 voltage protocols, depending on the number of active channels in the patch before drug application. Macroscopic currents (number of active channels > 15) were recorded in response to 100 ms voltage ramps between −120 and 120 mV applied every 2 seconds from a holding potential of −78 mV. […] With a lower number of active channels in the patch (3–15), current traces were recorded in response to 15‐second voltage steps to −20, 0, and 20 mV from a holding potential of −78 mV. Currents recorded at each voltage and each drug concentration were averaged over the duration of the trace and normalized to the average amplitudes of the corresponding current traces in drug‐free solution. […] Single channel data were analyzed using Ana software developed by Dr Michael Pusch (Istituto di Biofisica, Genova, Italy; http://users.ge.ibf.cnr.it/pusch/programs-mik.htm). […]

| SMILES | IC50 [nM] |
| --- | --- |
| O=C(OCCN1CCN(c2cccc(C(F)(F)F)c2)CC1)c1ccccc1Nc1ccnc2cc(C(F)(F)F)ccc12 [antrafenine] | 30.7 ± 7.4 |
| CC(C)c1c(C(=O)Nc2ccccc2)c(-c2ccccc2)c(-c2ccc(F)cc2)n1CC[C@@H](O)C[C@@H](O)CC(=O)O [atorvastatin] | 4500 ± 1700 |
| Cc1c(O)cccc1C(=O)N[C@@H](CSc1ccccc1)[C@H](O)CN1C[C@H]2CCCC[C@H]2C[C@H]1C(=O)NC(C)(C)C [nelfinavir mesylate] | 11.2 ± 2.2 |
